Like-named read-outs stand apart in the source and are kept apart here.
Experiments:
Format in all cases: cell-based, human
[1] = test system: SK-OV-3; assay: SRB anticancer assay, ovarian; settings: Homo sapiens, SK-OV-3, 48 h
[2] = test system: ACHN; assay: SRB anticancer assay, renal; settings: Homo sapiens, 48 h
[3] = test system: UACC-257; assay: SRB anticancer assay, melanoma; settings: Homo sapiens, UACC-257, 48 h
[4] = test system: MDA-MB-231/ATCC; assay: SRB anticancer assay, breast; settings: Homo sapiens, MDA-MB-231, 48 h, 48 h, read-out: GI50
[5] = test system: OVCAR-8; assay: SRB anticancer assay, ovarian; settings: Homo sapiens, OVCAR-8, 48 h
[6] = test system: NCI-H522; assay: SRB anticancer assay, non-small lung; settings: Homo sapiens, NCI-H522, 48 h
[7] = test system: KM12; assay: SRB anticancer assay, colon; settings: Homo sapiens, KM12, 48 h
[8] = test system: Colon cancer cell lines; assay: SRB anticancer assay, panel result; settings: for mean graph midpoint value (MG_MID) of log10 TGI: total inhibition of net cell growth; for LC50 / GI50: Homo sapiens; for LC50: 50% net cell death, read-out: mean graph midpoint value (MG_MID) of Log10 LC50 (converted)
Protocol: (§1) The compounds were evaluated for anticancer activity against sixty human cancer cells derived from nine cancer types (leukemia cell line, non-small-cell lung cell line, colon cell line, CNS cell line, melanoma cell line, ovarian cell line, prostate cell line, renal cancer cell line and breast cancer cell line) as shown in Table 1. For each compound, dose response curves for each cell line were measured at a minimum of five concentrations at 10 fold dilutions. A protocol of 48 h continuous drug exposure was used and a sulforhodamine B (SRB) protein assay was used to estimate cell viability or growth.

[9] = test system: Melanoma cancer cell lines; assay: SRB anticancer assay, panel result; settings: for LC50 / GI50: Homo sapiens; for LC50: 50% net cell death, read-out: mean graph midpoint value (MG_MID) of Log10 LC50 (converted); for mean graph midpoint value (MG_MID) of log10 TGI: total inhibition of net cell growth
Protocol: as §1

[10] = test system: CNS cancer cell lines; assay: SRB anticancer assay, panel result; settings: for mean graph midpoint value (MG_MID) of log10 TGI: total inhibition of net cell growth; for CC50 / GI50: Homo sapiens; for CC50: 50% net cell death, read-out: mean graph midpoint value (MG_MID) of Log10 LC50 (converted)
Protocol: as §1

[11] = test system: Leukemia cancer cell lines; assay: SRB anticancer assay, panel result; settings: for LC50 / GI50: Homo sapiens; for LC50: 50% net cell death, read-out: mean graph midpoint value (MG_MID) of Log10 LC50 (converted); for mean graph midpoint value (MG_MID) of log10 TGI: total inhibition of net cell growth
Protocol: as §1

[12] = test system: Non-small cell lung cancer cell lines; assay: SRB anticancer assay, panel result; settings: for LC50 / GI50: Homo sapiens; for LC50: 50% net cell death, read-out: mean graph midpoint value (MG_MID) of Log10 LC50 (converted); for mean graph midpoint value (MG_MID) of log10 TGI: total inhibition of net cell growth
Protocol: as §1

[13] = test system: Ovarian cancer cell lines; assay: SRB anticancer assay, panel result; settings: for LC50 / GI50: Homo sapiens; for LC50: 50% net cell death, read-out: mean graph midpoint value (MG_MID) of Log10 LC50 (converted); for mean graph midpoint value (MG_MID) of log10 TGI: total inhibition of net cell growth
Protocol: as §1

[14] = test system: Breast cancer cell lines; assay: SRB anticancer assay, panel result; settings: for mean graph midpoint value (MG_MID) of log10 TGI: total inhibition of net cell growth; for CC50 / GI50: Homo sapiens; for CC50: 50% net cell death, read-out: mean graph midpoint value (MG_MID) of Log10 LC50 (converted)
Protocol: as §1

[15] = test system: Prostate cancer cell lines; assay: SRB anticancer assay, panel result; settings: for LC50 / GI50: Homo sapiens; for LC50: 50% net cell death, read-out: mean graph midpoint value (MG_MID) of Log10 LC50 (converted); for mean graph midpoint value (MG_MID) of log10 TGI: total inhibition of net cell growth
Protocol: as §1

[16] = test system: Renal cancer cell lines; assay: SRB anticancer assay, panel result; settings: for CC50 / GI50: Homo sapiens; for CC50: 50% net cell death, read-out: mean graph midpoint value (MG_MID) of Log10 LC50 (converted); for mean graph midpoint value (MG_MID) of log10 TGI: total inhibition of net cell growth
Protocol: as §1

[17] = test system: U251; assay: SRB anticancer assay, CNS; settings: Homo sapiens, U-251; U251, 48 h
[18] = test system: NCI-H226; assay: SRB anticancer assay, non-small lung; settings: Homo sapiens, NCI-H226, 48 h
[19] = test system: SF-539; assay: SRB anticancer assay, CNS; settings: Homo sapiens, SF-539, 48 h
[20] = test system: SNB-19; assay: SRB anticancer assay, CNS; settings: Homo sapiens, SNB-19, 48 h
[21] = test system: NCI/ADR-RES; assay: SRB anticancer assay, ovarian; settings: Homo sapiens, NCI/ADR-RES, 48 h
[22] = test system: HT29; assay: SRB anticancer assay, colon; settings: Homo sapiens, HT-29; HT29, 48 h
[23] = test system: A549/ATCC; assay: SRB anticancer assay, non-small lung; settings: Homo sapiens, 48 h
[24] = test system: DU-145; assay: SRB anticancer assay, prostate; settings: Homo sapiens, DU-145, 48 h
[25] = test system: OVCAR-4; assay: SRB anticancer assay, ovarian; settings: Homo sapiens, OVCAR-4, 48 h
[26] = MDA-MB-231/ATCC (row head MDA-MB-)
[27] = Colon panel, read-out: mean graph midpoint value (MG_MID) of Log10 GI50 (converted)
[28] = seven colon cancer cell lines, exposure at least 48 h, read-out: GI50, range over the panel
[29] = Melanoma panel, read-out: mean graph midpoint value (MG_MID) of Log10 GI50 (converted)
[30] = nine melanoma cancer cell lines, exposure at least 48 h, read-out: GI50, range over the panel
[31] = CNS panel, read-out: mean graph midpoint value (MG_MID) of Log10 GI50 (converted)
[32] = six CNS cancer cell lines, exposure at least 48 h, read-out: GI50, range over the panel
[33] = Leukemia panel, read-out: mean graph midpoint value (MG_MID) of Log10 GI50 (converted)
[34] = six leukemia cancer cell lines, exposure at least 48 h, read-out: GI50, range over the panel
[35] = Non-small cell lung panel, read-out: mean graph midpoint value (MG_MID) of Log10 GI50 (converted)
[36] = nine Non-small cell lung cancer cell lines, exposure at least 48 h, read-out: GI50, range over the panel
[37] = Ovarian panel, read-out: mean graph midpoint value (MG_MID) of Log10 GI50 (converted)
[38] = seven ovarian cancer cell lines, exposure at least 48 h, read-out: GI50, range over the panel
[39] = Breast panel, read-out: mean graph midpoint value (MG_MID) of Log10 GI50 (converted)
[40] = six breast cancer cell lines, exposure at least 48 h, read-out: GI50, range over the panel
[41] = Prostate panel, read-out: mean graph midpoint value (MG_MID) of Log10 GI50 (converted)
[42] = Renal panel, read-out: mean graph midpoint value (MG_MID) of Log10 GI50 (converted)
[43] = eight renal cancer cell lines, exposure at least 48 h, read-out: GI50, range over the panel

For `COc1cc(OC)cc(-c2cncn2-c2ccc(-c3nc4cc(OC)cc(OC)c4s3)cc2)c1` [Compound 6d, 2-(4-(5-(3,5-Dimethoxyphenyl)-1H-imidazol-1-yl)phenyl)-5,7-dimethoxybenzo[d]thiazole], the GI50 [1] was 4.69 µM, the GI50 [2] was greater than 100 µM and the GI50 [3] was greater than 100 µM. For the same compound, the GI50 [4, 26] was 9.01 µM, the GI50 ([4]; row head printed 231/ATCC (second line of MDA-MB-231/ATCC)) was 5.02 µM and the GI50 [5] was 14.5 µM. For the same compound, the GI50 [6] was 2.49 µM, the GI50 [7] was 4.52 µM and the “mean graph midpoint value (MG_MID) of log10 TGI” value ([8]; Colon panel) was greater than −4.0. It also gave an LC50 ([8]; Colon panel) greater than 100 µM, a GI50 [8, 27] of 13.2 µM and a GI50 [8, 28] of 4.52 to 4.93 µM. For the same compound, the LC50 ([9]; Melanoma panel) was greater than 100 µM, the GI50 [9, 29] was 10.5 µM and the GI50 [9, 30] was 1.53 to 9.69 µM. The “mean graph midpoint value (MG_MID) of log10 TGI” value ([9]; Melanoma panel) was greater than −4.0, the “mean graph midpoint value (MG_MID) of log10 TGI” value ([10]; CNS panel) was −4.19 and the CC50 ([10]; CNS panel) was greater than 100 µM. For the same compound, the GI50 [10, 31] was 7.94 µM, the GI50 [10, 32] was 2.4 to 11.3 µM and the LC50 ([11]; Leukemia panel) was greater than 100 µM. For the same compound, the GI50 [11, 33] was 3.31 µM, the GI50 [11, 34] was 3.22 to 3.3 µM and the “mean graph midpoint value (MG_MID) of log10 TGI” value ([11]; Leukemia panel) was greater than −4.0. The LC50 ([12]; Non-small cell lung panel) was greater than 100 µM, the GI50 [12, 35] was 10.5 µM and the GI50 [12, 36] was 2.49 to 18.5 µM. The “mean graph midpoint value (MG_MID) of log10 TGI” value ([12]; Non-small cell lung panel) was −4.05, the LC50 ([13]; Ovarian panel) was greater than 100 µM and the GI50 [13, 37] was 7.94 µM. The GI50 [13, 38] was 2.87 to 14.5 µM, the “mean graph midpoint value (MG_MID) of log10 TGI” value ([13]; Ovarian panel) was greater than −4.0 and the “mean graph midpoint value (MG_MID) of log10 TGI” value ([14]; Breast panel) was greater than −4.0. For the same compound, the CC50 ([14]; Breast panel) was greater than 100 µM, the GI50 [14, 39] was 4.57 µM and the GI50 [14, 40] was 3.09 to 9.01 µM. The LC50 ([15]; Prostate panel) was greater than 100 µM, the GI50 [15, 41] was greater than 100 µM and the “mean graph midpoint value (MG_MID) of log10 TGI” value ([15]; Prostate panel) was greater than −4.0. For the same compound, the CC50 ([16]; Renal panel) was greater than 100 µM, the GI50 [16, 42] was 12.9 µM and the GI50 [16, 43] was 2.13 to 16.8 µM. For the same compound, the “mean graph midpoint value (MG_MID) of log10 TGI” value ([16]; Renal panel) was greater than −4.0, the GI50 [17] was 4.76 µM and the GI50 [18] was 18.5 µM. The GI50 [19] was 5.76 µM, the GI50 [20] was greater than 100 µM and the GI50 [21] was 2.58 µM.

With `COc1cc(OC)c2sc(-c3ccc(-n4cncc4-c4ccc(OC)c(OC)c4)cc3)nc2c1` [Compound 6e, 2-(4-(5-(3,4-Dimethoxyphenyl)-1H-imidazol-1-yl)phenyl)-5,7-dimethoxybenzo[d]thiazole] the GI50 [1] was greater than 100 µM, the GI50 [2] was greater than 100 µM and the GI50 [3] was greater than 100 µM. The GI50 [4, 26] was 28.4 µM, the GI50 [5] was 21.2 µM and the GI50 [6] was 5.26 µM. For the same compound, the GI50 [7] was 6.8 µM, the “mean graph midpoint value (MG_MID) of log10 TGI” value ([8]; Colon panel) was greater than −4.0 and the LC50 ([8]; Colon panel) was greater than 100 µM. For the same compound, the GI50 [8, 27] was 25.1 µM, the GI50 [8, 28] was 5.48 to 7.13 µM and the LC50 ([9]; Melanoma panel) was greater than 100 µM. For the same compound, the GI50 [9, 29] was 40.7 µM, the GI50 [9, 30] was 3.61 to 59.8 µM and the “mean graph midpoint value (MG_MID) of log10 TGI” value ([9]; Melanoma panel) was greater than −4.0. The “mean graph midpoint value (MG_MID) of log10 TGI” value ([10]; CNS panel) was −4.06, the CC50 ([10]; CNS panel) was greater than 100 µM and the GI50 [10, 31] was 19.1 µM. The GI50 [10, 32] was 7 to 9.96 µM, the LC50 ([11]; Leukemia panel) was greater than 100 µM and the GI50 [11, 33] was 16.2 µM. For the same compound, the GI50 [11, 34] was 3.03 to 5.88 µM, the “mean graph midpoint value (MG_MID) of log10 TGI” value ([11]; Leukemia panel) was greater than −4.0 and the LC50 ([12]; Non-small cell lung panel) was greater than 100 µM. The GI50 [12, 35] was 22.9 µM, the GI50 [12, 36] was 5.26 to 41.8 µM and the “mean graph midpoint value (MG_MID) of log10 TGI” value ([12]; Non-small cell lung panel) was −4.01. It also gave an LC50 ([13]; Ovarian panel) greater than 100 µM, a GI50 [13, 37] of 29.5 µM and a GI50 [13, 38] of 3.85 to 56.1 µM. The “mean graph midpoint value (MG_MID) of log10 TGI” value ([13]; Ovarian panel) was greater than −4.0, the “mean graph midpoint value (MG_MID) of log10 TGI” value ([14]; Breast panel) was greater than −4.0 and the CC50 ([14]; Breast panel) was greater than 100 µM. The GI50 [14, 39] was 7.41 µM, the GI50 [14, 40] was 3.78 to 28.4 µM and the LC50 ([15]; Prostate panel) was greater than 100 µM. The GI50 [15, 41] was 10.2 µM, the GI50 ([15]; two prostate cancer cell lines (PC-3, DU-145), exposure at least 48 h, read-out: GI50, range over the panel) was 3.66 to 27.9 µM and the “mean graph midpoint value (MG_MID) of log10 TGI” value ([15]; Prostate panel) was greater than −4.0. It also gave a CC50 ([16]; Renal panel) greater than 100 µM, a GI50 [16, 42] of 25.1 µM and a GI50 [16, 43] of 2.15 to 3.17 µM. The “mean graph midpoint value (MG_MID) of log10 TGI” value ([16]; Renal panel) was greater than −4.0, the GI50 [22] was 7.13 µM and the GI50 [17] was 9.19 µM. The GI50 [23] was 41.8 µM, the GI50 [24] was 27.9 µM and the GI50 [18] was 6.44 µM. For the same compound, the GI50 [19] was greater than 100 µM, the GI50 [25] was 4.21 µM and the GI50 [20] was greater than 100 µM. It also gave a GI50 [21] greater than 100 µM.
